The record followed here is US10206394B2, “Herbicidal compounds” (Syngenta Participations AG, priority 2014, dated 2019).

Molecules are shown by their SMILES. Where two headings read alike, the source gives them in different places.

Holding throughout (assay): Glasshouse assay for herbicidal activity (pre- and post-emergence), percentage phytotoxicity
Format in all cases: in vivo

The subject of one experiment is Avena fatua (AVEFA). Particulars: Avena fatua. In short, it runs like this:
(§1)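 Sow seed in standard soil in pots; apply test herbicide after 1 day (PRE) or about 12 days (POST). Grow on in the glasshouse, watering twice daily, cool-season species at 20/16 °C and warm-season at 24/18 °C. Score visible damage (0–100%) at 20 or 15 DAA respectively.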

In a further experiment the test system is Lolium perenne (LOLPE). Particulars: Lolium perenne. In short, it runs like this: as §1
Experiment [1] deals with Alopecurus myosuroides (ALOMY). Particulars: Alopecurus myosuroides. In short, it runs like this:
as §1

Experiment [2] concerns Echinochloa crus-galli (ECHCG). As to conditions: Echinochloa crus-galli. In short, it runs like this: as §1
Setting [3] is: post-emergence, 360 h, Rate 250 g/ha, post-emergence, visual assessment 15 DAA, 100%=total damage, 0%=no damage, read-out: Post-emergence herbicidal activity (percentage phytotoxicity) AVEFA POST.
Where [4] appears, read: pre-emergence, 480 h, Rate 250 g/ha, pre-emergence, visual assessment 20 DAA, 100%=total damage, 0%=no damage, read-out: Pre-emergence herbicidal activity (percentage phytotoxicity) AVEFA PRE.
Where [5] appears, read: post-emergence, 360 h, Rate 250 g/ha, post-emergence, visual assessment 15 DAA, 100%=total damage, 0%=no damage, read-out: Post-emergence herbicidal activity (percentage phytotoxicity) LOLPE POST.
Where [6] appears, read: pre-emergence, 480 h, Rate 250 g/ha, pre-emergence, visual assessment 20 DAA, 100%=total damage, 0%=no damage, read-out: Pre-emergence herbicidal activity (percentage phytotoxicity) LOLPE PRE.
The mark [7] stands for this setting: post-emergence, 360 h, Rate 250 g/ha, post-emergence, visual assessment 15 DAA, 100%=total damage, 0%=no damage, read-out: Post-emergence herbicidal activity (percentage phytotoxicity) ALOMY POST.
The mark [8] stands for this setting: pre-emergence, 480 h, Rate 250 g/ha, pre-emergence, visual assessment 20 DAA, 100%=total damage, 0%=no damage, read-out: Pre-emergence herbicidal activity (percentage phytotoxicity) ALOMY PRE.
[9] abbreviates: post-emergence, 360 h, Rate 250 g/ha, post-emergence, visual assessment 15 DAA, 100%=total damage, 0%=no damage, read-out: Post-emergence herbicidal activity (percentage phytotoxicity) ECHCG POST.
The mark [10] stands for this setting: pre-emergence, 480 h, Rate 250 g/ha, pre-emergence, visual assessment 20 DAA, 100%=total damage, 0%=no damage, read-out: Pre-emergence herbicidal activity (percentage phytotoxicity) ECHCG PRE.
The mark [11] stands for this setting: post-emergence, 360 h, POST-emergence, rate 250 g/ha, visual score 15 DAA (100%=total damage, 0%=no damage), read-out: Post-emergence herbicidal activity (percentage phytotoxicity) AVEFA POST.
The mark [12] stands for this setting: pre-emergence, 480 h, PRE-emergence, rate 250 g/ha, visual score 20 DAA (100%=total damage, 0%=no damage), read-out: Pre-emergence herbicidal activity (percentage phytotoxicity) AVEFA PRE.
The mark [13] stands for this setting: post-emergence, 360 h, POST-emergence, rate 250 g/ha, visual score 15 DAA (100%=total damage, 0%=no damage), read-out: Post-emergence herbicidal activity (percentage phytotoxicity) LOLPE POST.
Where [14] appears, read: pre-emergence, 480 h, PRE-emergence, rate 250 g/ha, visual score 20 DAA (100%=total damage, 0%=no damage), read-out: Pre-emergence herbicidal activity (percentage phytotoxicity) LOLPE PRE.
Where [15] appears, read: post-emergence, 360 h, POST-emergence, rate 250 g/ha, visual score 15 DAA (100%=total damage, 0%=no damage), read-out: Post-emergence herbicidal activity (percentage phytotoxicity) ALOMY POST.
Setting [16] is: pre-emergence, 480 h, PRE-emergence, rate 250 g/ha, visual score 20 DAA (100%=total damage, 0%=no damage), read-out: Pre-emergence herbicidal activity (percentage phytotoxicity) ALOMY PRE.
Where [17] appears, read: post-emergence, 360 h, POST-emergence, rate 250 g/ha, visual score 15 DAA (100%=total damage, 0%=no damage), read-out: Post-emergence herbicidal activity (percentage phytotoxicity) ECHCG POST.
[18] abbreviates: pre-emergence, 480 h, PRE-emergence, rate 250 g/ha, visual score 20 DAA (100%=total damage, 0%=no damage), read-out: Pre-emergence herbicidal activity (percentage phytotoxicity) ECHCG PRE.
Where [19] appears, read: post-emergence, 360 h, Rate 250 g/ha, post-emergence, assessed visually 15 DAA, 100%=total damage, 0%=no damage, read-out: Post-emergence herbicidal activity (percentage phytotoxicity) AVEFA POST.
Setting [20] is: pre-emergence, 480 h, Rate 250 g/ha, pre-emergence, assessed visually 20 DAA, 100%=total damage, 0%=no damage, read-out: Pre-emergence herbicidal activity (percentage phytotoxicity) AVEFA PRE.
Setting [21] is: post-emergence, 360 h, Rate 250 g/ha, post-emergence, assessed visually 15 DAA, 100%=total damage, 0%=no damage, read-out: Post-emergence herbicidal activity (percentage phytotoxicity) LOLPE POST.
Setting [22] is: pre-emergence, 480 h, Rate 250 g/ha, pre-emergence, assessed visually 20 DAA, 100%=total damage, 0%=no damage, read-out: Pre-emergence herbicidal activity (percentage phytotoxicity) LOLPE PRE.
The mark [23] stands for this setting: post-emergence, 360 h, Rate 250 g/ha, post-emergence, assessed visually 15 DAA, 100%=total damage, 0%=no damage, read-out: Post-emergence herbicidal activity (percentage phytotoxicity) ALOMY POST.
The mark [24] stands for this setting: pre-emergence, 480 h, Rate 250 g/ha, pre-emergence, assessed visually 20 DAA, 100%=total damage, 0%=no damage, read-out: Pre-emergence herbicidal activity (percentage phytotoxicity) ALOMY PRE.
Setting [25] is: post-emergence, 360 h, Rate 250 g/ha, post-emergence, assessed visually 15 DAA, 100%=total damage, 0%=no damage, read-out: Post-emergence herbicidal activity (percentage phytotoxicity) ECHCG POST.
Setting [26] is: pre-emergence, 480 h, Rate 250 g/ha, pre-emergence, assessed visually 20 DAA, 100%=total damage, 0%=no damage, read-out: Pre-emergence herbicidal activity (percentage phytotoxicity) ECHCG PRE.

`Cc1cc(-c2ncc(Cl)cn2)cc(C)c1C1C(=O)CC(CC(=O)NCc2cccc(Cl)c2)C1=O` (centres unmarked) [Compound B354]: the pest or weed control at 250 g/ha was 100% in the experiment with Avena fatua (AVEFA) (setting [3]); 80% in the experiment on Avena fatua (AVEFA) (setting [4]); 90% with Lolium perenne (LOLPE) (setting [5]); 80% with Lolium perenne (LOLPE) (setting [6]); 90% in experiment [1] (setting [7]); 70% in experiment [1] (setting [8]). For the same compound, the pest or weed control at 250 g/ha in experiment [2] (setting [9]) came to 100%; in experiment [2] (setting [10]), 90%.

As to `C/C=C/c1cc(C)c(C2C(=O)CC(CC(N)=O)C2=O)c(C)c1` (centres unmarked) [Compound B175], the pest or weed control at 250 g/ha in the experiment with Avena fatua (AVEFA) (setting [11]) was determined as 100%; with Avena fatua (AVEFA) (setting [12]) it was 90%; in the experiment with Lolium perenne (LOLPE) (setting [13]) it was 80%; in the experiment with Lolium perenne (LOLPE) (setting [14]), 100%; in experiment [1] (setting [15]) it was 90%; in experiment [1] (setting [16]) it was 100%. The pest or weed control at 250 g/ha in experiment [2] (setting [17]) came out at 90%; in experiment [2] (setting [18]), 100%.

As to `Cc1cc(C)c(C2C(=O)CC(CC(=O)NCCC3=CCCCC3)C2=O)c(C)c1` (centres unmarked) [Compound A91], the pest or weed control at 250 g/ha in the experiment on Avena fatua (AVEFA) (setting [19]) was 0%; in the experiment with Avena fatua (AVEFA) (setting [20]), 30%; with Lolium perenne (LOLPE) (setting [21]), 70%; in the experiment with Lolium perenne (LOLPE) (setting [22]), 70%; in experiment [1] (setting [23]), 10%; in experiment [1] (setting [24]), 30%. Further, the pest or weed control at 250 g/ha in experiment [2] (setting [25]) was 0%; in experiment [2] (setting [26]), 20%.

`CC#Cc1cc(C)c(C2C(=O)CC(CC(=O)NCc3ccsc3)C2=O)c(C)c1` (centres unmarked) [Compound A55]: the pest or weed control at 250 g/ha in the experiment on Avena fatua (AVEFA) (setting [19]) came out at 100%; with Avena fatua (AVEFA) (setting [20]), 80%; in the experiment with Lolium perenne (LOLPE) (setting [21]), 90%; in the experiment on Lolium perenne (LOLPE) (setting [22]), 90%; in experiment [1] (setting [23]), 90%; in experiment [1] (setting [24]), 90%. For the same compound, the pest or weed control at 250 g/ha in experiment [2] (setting [25]) and in experiment [2] (setting [26]) was 100% throughout.

With `CC#Cc1cc(C)c(C2C(=O)CC(CC(=O)NCC3CC3)C2=O)c(C)c1` (centres unmarked) [Compound A63], the pest or weed control at 250 g/ha with Avena fatua (AVEFA) (setting [19]) worked out at 100%; in the experiment with Avena fatua (AVEFA) (setting [20]), 90%; in the experiment on Lolium perenne (LOLPE) (setting [21]), 90%; in the experiment with Lolium perenne (LOLPE) (setting [22]), 100%; in experiment [1] (setting [23]), 100%; in experiment [1] (setting [24]) it was 100%. For the same compound, the pest or weed control at 250 g/ha in experiment [2] (setting [25]) and in experiment [2] (setting [26]) was 100% in each case.

Consider `COCC(C)NC(=O)CC1CC(=O)C(c2c(C)cc(-c3ccc(F)cn3)cc2C)C1=O` (centres unmarked) [Compound B391], for which the pest or weed control at 250 g/ha in the experiment with Avena fatua (AVEFA) (setting [3]) was 100%; with Avena fatua (AVEFA) (setting [4]), 100%; in the experiment with Lolium perenne (LOLPE) (setting [5]), 90%; with Lolium perenne (LOLPE) (setting [6]), 100%; in experiment [1] (setting [7]), 90%; in experiment [1] (setting [8]), 90%. In addition, the pest or weed control at 250 g/ha in experiment [2] (setting [9]) and in experiment [2] (setting [10]) was 100% in each case.

For `Cc1cc(-c2ccc(Cl)cn2)cc(C)c1C1C(=O)CC(CC(=O)N(C)Cc2cccc(F)c2)C1=O` (centres unmarked) [Compound B358], the pest or weed control at 250 g/ha worked out at 100% in the experiment with Avena fatua (AVEFA) (setting [3]); 100% in the experiment with Avena fatua (AVEFA) (setting [4]); 90% in the experiment on Lolium perenne (LOLPE) (setting [5]); 90% with Lolium perenne (LOLPE) (setting [6]); 100% in experiment [1] (setting [7]); 90% in experiment [1] (setting [8]). In addition, the pest or weed control at 250 g/ha in experiment [2] (setting [9]) and in experiment [2] (setting [10]) was 100% each time.

For the compound `C/C=C/c1cc(C)c(C2C(=O)CC(CC(=O)NCc3ccc(OC)cc3)C2=O)c(C)c1` (centres unmarked) [Compound B243], the pest or weed control at 250 g/ha in the experiment with Avena fatua (AVEFA) (setting [11]) was determined as 50%; in the experiment on Avena fatua (AVEFA) (setting [12]), 0%; with Lolium perenne (LOLPE) (setting [13]), 70%; in the experiment with Lolium perenne (LOLPE) (setting [14]), 0%; in experiment [1] (setting [15]) it was 80%; in experiment [1] (setting [16]), 0%. Besides, the values for the pest or weed control at 250 g/ha in experiment [2] (setting [17]) and in experiment [2] (setting [18]) were 90% and 0%, respectively.

For the compound `Cc1cc(-c2ccc(C#N)cn2)cc(C)c1C1C(=O)CC(CC(=O)NC(C)C)C1=O` (centres unmarked) [Compound B320], the pest or weed control at 250 g/ha (in the experiment on Avena fatua (AVEFA) (setting [11]); in the experiment with Avena fatua (AVEFA) (setting [12]); with Lolium perenne (LOLPE) (setting [13]); in the experiment on Lolium perenne (LOLPE) (setting [14]); in experiment [1] (setting [15]); in experiment [1] (setting [16])) was 100% each time. Further, the pest or weed control at 250 g/ha in experiment [2] (setting [17]) and in experiment [2] (setting [18]) was 100% throughout.

Regarding `CC#Cc1cc(C)c(C2C(=O)CC(CC(=O)NC3CCC3)C2=O)c(C)c1` (centres unmarked) [Compound A81], the pest or weed control at 250 g/ha in the experiment with Avena fatua (AVEFA) (setting [19]) turned out to be 100%; in the experiment with Avena fatua (AVEFA) (setting [20]), 100%; with Lolium perenne (LOLPE) (setting [21]) it was 90%; with Lolium perenne (LOLPE) (setting [22]), 100%; in experiment [1] (setting [23]) it was 90%; in experiment [1] (setting [24]), 100%. Besides, the pest or weed control at 250 g/ha in experiment [2] (setting [25]) and in experiment [2] (setting [26]) was 100% each time.
